Test results published in patent US20070087330A1, “Viral deconstruction through capsid assembly in vitro” (priority 2002, published 2007).

Legend:
[1] = test system: HBV core polypeptides / HBV capsids; format: biochemical
Protocol: Following translation of HBV core transcript for 30 min, the translation product was diluted in 0.01% Nil(kol buffer and centrifuged on a 10-50% sucrose gradient. The supernatant was removed and the pellet was resuspended in buffer and divided into equal aliquots. To one aliquots was added apyrase (A, top) while the control was incubated in buffe alone (A, bottom). Incubations were done at 25° C. for 90 min. Reaction mixtures were then centrifuged on standard 10-50% sucrose gradients. Fractions were analyzed by SDS-PAGE and autoradiography. In a separate experiment (B) the pellet was isolated and resuspended in identical fashion. To one aliquot was added wheat germ extract as well as unlabeled energy mix. (B, top); to the second aliquot was added wheat germ extract and apyrase (B, botton).
To address this, pellet material was isolated by fractionating the products of a 30-min translation of HBV core on a sucrose gradient and resuspending the pellet in buffer. The resuspended pellet was divided into equal aliquots and treated either with aphyase or with buffer for 90 min at 24° C.
Treatment of the isolated pellet with apyrase and wheat germ extract (FIG. 23B, bottom).

[2] = test system: HIV capsid assembly (Gag Pr55); assay: Cell-free HIV capsid assembly in wheat germ extract, analysed by velocity sedimentation; format: biochemical
Protocol: Translation of the transcription products was carried out in wheat germ extract containing ^35S methionine (ICN Pharmaceuticals, Costa Mesa, Calif.). Wheat germ was obtained from General Mills. Wheat germ extract was prepared as described by Erickson and Blobel (1983) supra with indicated modifications. Three grams of wheat germ were placed in a mortar and ground in 10 ml homogenization buffer (100 mM K-acetate, 1 mM Mg-acetate, 2 mM CaC12, 40 mM HEPES buffer, pH 7.5 (Sigma Chemicals, St. Louis, Mo.), 4 mM dithiothreitol) to a thick paste. The homogenate was scraped into a chilled centrifuge tube and centrifuged at 4° C. for 10 min at 23,000×g. The resulting supernatant was centrifuged again under these conditions to provide an S23 wheat germ extract. Improved assembly was obtained when the S23 wheat germ extract was further subjected to ultracentrifugation at 50,000 rpm in the TLA 100 rotor (100,000×g) (Beckman Instruments, Palo Alto, Calif.) for 15 min at 4° C. and the supernatant used for in vitro translation. […] This supernatant is referred to herein as a “high speed wheat germ extract supernatant”. Reactions were performed as previously described (Lingappa, J. R., et al., J. Cell. Biol. (1984) 125:99-111), except for modifications noted below.
A 25 μl wheat germ transcription/translation reaction mixture contained: 5 μl Gag transcript, 5 μl ^35—S Energy Mix 5× stock (Sigma Chemical Co., St. Louis, Mo.), 2.5 μl Compensating Buffer (Sigma Chemical Co.), 1.0 μl 40 mM MgAcetate (Sigma Chemical Co.), 2.0 μl 125 μM Myristoyl CoA (made up in 20 mM Tris Acetate, pH 7.6; Sigma Chemical Co.), 3.75 μl 20 mM Tris Acetate buffer, […] (U.S. Biochemicals; Cleveland, Ohio), 0.25 μl creatine kinase (4 mg/ml stock in 50% glycerol, 10 mM Tris Acetate; Boehringer Mannheim, Indianapolis, Ind.), 0.25 μl bovine tRNA (10 mg/ml stock; Sigma Chemical Co.), and 0.25 μl RNAse Inhibitor (20 units/50; Promega). […]
The purpose of this experiment was to use the cell-free system for detecting HIV assembly intermediates that would be otherwise difficult or impossible to detect. A continuously labeled cell-free reaction was analyzed by velocity sedimentation. […] Upon completion of the cell-free reaction, the products were diluted into 1% NP40 sample buffer on ice, and were analyzed by velocity sedimentation on 13 ml 15-60% sucrose gradients. Fractions were collected from the top of each gradient, and the amount of radiolabeled Pr55 protein in each fraction was determined and expressed as percent of total Pr55 protein present in the reaction. The calculated positions of 10S, 80S, 150S, 500S, and 750S complexes are indicated with markers above the figures (see FIG. 3A). […]

Chain of HBV core polypeptides / HBV capsids (P03146 whole entry): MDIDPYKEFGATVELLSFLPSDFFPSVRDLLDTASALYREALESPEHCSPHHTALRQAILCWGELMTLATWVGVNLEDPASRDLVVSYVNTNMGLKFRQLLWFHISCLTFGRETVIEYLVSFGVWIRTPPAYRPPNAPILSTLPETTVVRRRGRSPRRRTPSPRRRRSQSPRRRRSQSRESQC

With `CC[C@H]1CN2CCc3cc(OC)c(OC)cc3[C@@H]2C[C@@H]1C[C@H]1NCCc2cc(OC)c(OC)cc21` [emetine] the “Effect on results of treating the isolated pellet with energy substrates or apyrase” value ([1]; protein synthesis inhibitor added) was “did not affect”.
With apyrase the “Effect of treating the isolated pellet material” value ([1]; pellet of a 30-min translation, 90 min at 24° C.) was “release of completed capsids from the pellet”, the “A (material in fractions of assembly intermediate complex A)” value ([2]; radiolabeled Pr55 in 10S complex A, apyrase added post-translationally, detergent cotranslationally) was 2851 and the “B/C (material in fractions of assembly intermediate complexes B and C)” value ([2]; radiolabeled Pr55 in 80S/150S complexes B and C, apyrase added post-translationally, detergent cotranslationally) was 5999. For the same compound, the “Final Capsid (material in fractions of the completed capsid)” value ([2]; radiolabeled Pr55 in 750S completed capsid position, apyrase added post-translationally, detergent cotranslationally) was 133 and the “Effect of treatment on assembly intermediates” value ([2]; velocity sedimentation, compared with the untreated reaction) was “accumulation of additional material in complexes B and C”.
For `O=C(O)CN(CCN(CC(=O)O)CC(=O)O)CC(=O)O` [EDTA], the “Effect on relative distribution of labeled core polypeptides in top, middle and pellet regions” value ([1]; 10 mM, translation products treated) was “had no effect”.
